In patent publication US20060003924A1, “Sulfation-independent L-selectin or E-selectin ligand (HCELL) and therapeutics thereof” (priority 1994, published 2006):

Key:
[1] = system: PSGL-1 on KG1a cells; assay: P-selectin-Ig binding to PSGL-1 on KG1a cells (flow cytometry); format: cell-based, human; conditions: after treatment of KG1a
[2] = system: sulfation; assay: 35S-SO4 pulse radiolabelling of KG1a, TCA-precipitable counts; conditions: 10 mM chlorate, eight hour pulses within 24 hours
[3] = system: KG1a; assay: KG1a cell viability by trypan blue exclusion; format: cell-based, human; conditions: KG1a after the treatment
[4] = system: protein synthesis; assay: 35S-methionine/cysteine incorporation into TCA-precipitable protein of KG1a; format: cell-based, human
Protocol: In each case, cells were cultured for 20 hours and the expression of L-selectin ligand activity was measured by adherence assay at the end of the culture period. For all studies utilizing metabolic inhibitors, parallel cultures were established in the presence of ^35S-methionine/cysteine and protein synthesis was measured by scintillation counting of trichloroacetic acid (TCA)-precipitable protein as previously described (27).

[5] = system: CD43; assay: Flow cytometry of sialic acid-dependent L60 epitope of CD43 on KG1a after neuraminidase; format: cell-based, human; conditions: KG1a cultured with the agent
[6] = system: KG1a; assay: Lymphocyte adherence assay on KG1a cytocentrifuge preparations (Examples 2-6); format: cell-based, human
[7] = system: KG1a cells; assay: Stamper-Woodruff lymphocyte adherence assay on KG1a cytospins (Example 9); format: cell-based, human; conditions: Stamper-Woodruff assay
[8] = system: LN HEV; assay: Lymphocyte adherence to frozen rat lymph node sections (LN HEV, positive control); format: cell-based
Protocol: Lymphocyte Adherence Assay. […] Cytocentrifuge preparations of KG1a or other cell lines were made on a Cytospin 3 Cytocentrifuge (Shandon Lipshaw, Pittsburgh, Pa.). Frozen rat LN sections […] thick were mounted on slides, and lymphocyte binding to LN HEV served as a positive control in all experiments.
Lymphocyte suspensions ([…]) were overlaid onto cytocentrifuge or LN sections in duplicate and placed on a rotating platform (80 rpm) at 4° C. for 30 minutes. Slides were then rinsed in cold PBS to remove non-adherent lymphocytes, fixed in 3% glutaraldehyde, and stained with methyl green-thionin. Slides were examined under the light microscope for adherence of lymphocytes to KG1a or LN HEV.

[9] = system: L-selectin; assay: Flow cytometry of surface L-selectin (TQ1) on PMA-treated PBL; format: cell-based, human; conditions: 10 ng/ml PMA, 1 hour 37° C.
Protocol: (§1) PMA Treatment of Lymphocytes. Lymphocytes were suspended at 1′ 10^7 cells/ml in cell culture medium and incubated 1 hour at 37° C. with or without 10 ng/ml PMA (Gibco-BRL). Cells were then washed twice in PBS and used in either the lymphocyte binding assay or analyzed for surface antigens by flow cytometry (see below).
(§2) Antigen Expression by Flow Cytometry. Flow cytometric analysis was performed using the following commercially-available mAbs together with isotype-matched controls: TQ1 (anti-L-selectin), LAM1-3 (Anti-L-selectin), 4B4 (anti-VLA-4) (all from Coulter Corp.); QBEND10 (anti-CD34) (AMAC, Westbrook, Me.); anti-CD44, LFA-1-b (anti-CD18), LFA-1-a (anti-CD11a), HPCAS-2 (anti-CD34), anti-CD45, Leukosialin (anti-CD43), anti-Sialyl-Le^x (all from Becton Dickinson). Cells (1′ 10^6) in […] of PBS with 2% FBS were incubated on ice for 25 minutes with antibody as per manufacturer's recommendations, washed ′3 and analyzed on a FACStar^PLUS (Becton Dickinson).

[10] = system: CD44, LFA-1 (both a and b chains), and VLA-4; assay: Flow cytometry of CD44, LFA-1 and VLA-4 on PMA-treated PBL; format: cell-based, human; conditions: vs control PBL
Protocol: as §1, §2

| SMILES | P-selectin(-Ig) binding to PSGL-1 on KG1a cells [1] | TCA-precipitable 35S-SO4 radiolabeled protein counts, that of non-chlorate treated controls [2] [%] | Cell viability (trypan blue exclusion) [3] [%] | protein synthesis (35S-methionine/cysteine TCA-precipitable counts) [4] | return of the L60 epitope of CD43 after neuraminidase [5] | lymphocyte adherence to chlorate-incubated KG1a cells, that of neuraminidase-treated KG1a cells not incubated in chlorate ([6]; 24 hours after neuraminidase, 10 mM sodium chlorate, mean±SEM) [%] | Lymphocyte Adherence to KG1a, Mean of Binding (% of untreated control) ([6]; after neuraminidase, 24 hr culture with chlorate 10 mM, 20 hr culture with tunicamycin 15 ug/ml or cycloheximide 1.25 ug/ml) | L-selectin ligand (HCELL) activity of KG1a / lymphocyte adherence (result in words) [7] | lymphocyte binding to LN control sections / LN HEV (result in words) [8] | TQ1 mean channel fluorescence, of that of untreated cells [9] | expression of CD44, LFA-1 and VLA-4 following PMA exposure [10] | lymphocyte binding to KG1a (result in words) [6] | Lymphocyte Adherence to KG1a, Mean of Binding (% of untreated control) ([6]; […], 1 mM EDTA, 10 mM mannose-6-P, 10 mg/ml PPME, 5 mg/ml fucoidin, 10 ng/ml PMA) |
| --- | --- | --- | --- | --- | --- | --- | --- | --- | --- | --- | --- | --- | --- |
| [O-][Cl+2]([O-])O [Chlorate, sodium chlorate] | eliminated | < 10 | > 95 | did not inhibit | did not block re-expression | 107 | 107.1 % of untreated control | did not alter | – | – | – | – | – |
| CCCCCCCCCCCCCC(=O)O[C@@H]1[C@@H](C)[C@@]2(O)[C@@H](C=C(CO)C[C@]3(O)C(=O)C(C)=C[C@@H]23)[C@@H]2C(C)(C)[C@]12OC(C)=O [PMA, phorbol myristate acetate] | – | – | – | – | – | – | – | complete elimination | unable to bind | less than 10% | identical | unable to bind | 1.1 % of Untreated Control |
